The subject of this test is histamine induced nasal congestion. The settings on record: 5% histamine aerosol, dogs.

`NCCc1c[nH]cn1` [Histamine]: the “induction of nasal congestion” value was “induced congestion in all animals to varying degrees”.

The values are drawn from patent US20190282518A1 (Bryn Pharma, LLC, priority 2018, published 2019).
